Entries after “also recorded” stand apart in the source; their conditions may differ.

The record followed here is patent US8101180B2, “Anti-IGF-IR and/or anti-insulin/IGF-I hybrid receptors antibodies and uses thereof” (Pierre Fabre Medicament, priority 2002, dated 2012).

Assay [1] deals with A549 tumor. The assay can be described thus: A549 non-small cell lung tumor subcutaneous xenograft. Type of assay: in vivo, nude mice. To be noted: s.c. xenograft; for inhibition of A549 tumor growth in vivo, murine versus humanized antibody: 125 μg/dose twice per week i.p. The protocol:
Navelbine is a chemotherapy compound indicated in non-small cell cancer of the lung and in metastatic cancer of the breast. […] For this study, 5·10^6 A549 cells were grafted subcutaneously on the right flank of the mouse. Five days after the cell graft, the tumors are measurable and the treatments with MAb and/or navelbine are commenced. The MAb dose is always 250 μg/dose/mouse, twice per week, intra-peritoneally. Concerning navelbine, it will be administered at the maximum dose tolerated by the mouse or 10 mg/kg, intraperitoneally. For this treatment three injections will be carried out at intervals of 7 days. During the coadministrations, the two products are mixed before injection.
For this study, nude mice are grafted s.c. with 5·10^6 A549 cells. Five days after the cell graft, the tumors are measured and a homogeneous batch of mice in terms of tumor volume is formed. Starting from this batch, groups of 6 mice are generated at random.
To do this, 5·10^6 A549 cells were implanted subcutaneously in nude mice. Five days after this implantation, the tumors were measured and groups of 6 mice were formed. […] This granule is essential to the establishment of any E2-dependent human tumor in this animal species.
These conjugates are administered according to the same modes as the groups given the chemotherapy compounds alone; • the animals of the control batch are given injections of PBS, administered according to the same frequency.
The weight of the mice and the tumor volume are evaluated twice a week. The tumor volumes are calculated according to the formula: ½ (length·width·height).

Assay [2] deals with IRS-1. Briefly: Tyrosine phosphorylation of IRS-1 in IGF-I-stimulated MCF7 cells. The conditions noted are these: antibodies 10 μg/ml, IGF-I 50 ng/ml. Format: cell-based, human. Here is the method: MCF7 cells are cultured for 24 hours at 5·10^4 cells/cm^2 (75 cm^2 plates, COSTAR) in 20 ml of RPMI without phenol red, mixed with 5 mM of glutamine, penicillin/streptomycin (respectively 100 U/100 μg/ml) and 10% of fetal calf serum. After three washes in PBS, the cells were incubated for 12 hours in medium (RPMI) without phenol red, devoid of fetal calf serum and mixed with 5 mM of glutamine, penicillin/streptomycin, bovine serum albumin at 0.5 μg/ml (Sigma A-8022) and transferrin at 5 μg/ml (Sigma T8158).
For activation, the cells were first incubated at 37° C. for 2 minutes with blocking antibodies (10 μg/ml) and then IGF-I (Sigma I3769, 50 ng/ml) was added for two additional minutes. The reaction was stopped by aspiration of the incubation medium and the plates were laid on ice. […] The solutions were centrifuged at 12,000 rpm for ten minutes (4° C.) and the protein concentrations of the supernatants were quantified by BCA.
500 μg of proteins of the cell lysate were mixed with the anti-IGF-IR (Santa cruz Ref.: sc-713) for immunoprecipitation and incubated on the shaker at 4° C. for 1.5 hours. […] The supernatants were analyzed by electrophoresis on polyacrylamide SDS gel (8% Novex EC6015). […]

Assay [3] concerns Hybrid-R. The assay can be described thus: Immunoprecipitation of Hybrid-R from R+/IR-A and R+/IR-B cell lysates. Type of assay: binding. An excerpt:
The used cells for this study are listed thereafter: • R+: R− fibroblasts stably transfected with the IGF-I receptor (IGF-IR) cDNA • R−/IR-A: R− fibroblasts stably transfected with the insulin receptor isoform A (IR-A) cDNA • R−/IR-B:R− fibroblasts stably transfected with the insulin receptor isoform B (IR-B) cDNA • R+/IR-A: R− fibroblasts stably co-transfected with the IGF-I and the insulin receptor isoform A cDNA and, therefore, expressing hybrid receptors A (Hybrid-RsA) • R+/IR-B: R− fibroblasts stably co-transfected with the IGF-I and the insulin receptor isoform B cDNA and, therefore, expressing hybrid receptors B (Hybrid-RsB)
For the obtention of cellular lysat, cells were solubilized in RIPA buffer and 4 mg protein used for immunoprecipitation.
Following immunoprecipitation, the pellet was resuspended in 2× sample buffer and subjected to SDS-PAGE (7.5% polyacrylamide).
Filters were blotted as follows: Filters containing R+ lysates (and therefore only IGF-IR) with an anti-IGF-IR β-subunit (Santa Cruz). Filters containing lysates from all the remaining cells with an antibody anti-IR β-subunit (Santa Cruz).

Assay [4] has as its system MCF-7 cells. Briefly: Apoptosis of MCF-7 cells (Annexin V-FITC/DAPI flow cytometry). The conditions noted are these: antibody 10 μg/ml + doxorubicin 2 μg/ml, 24 hours. Format: cell-based, human. The protocol:
As indicated above, IGF-IR is capable of conferring protection against apoptosis when it is overexpressed on the surface of cells. […] In these experiments, the MCF-7 cells are inoculated at 2·10^4/cm^2 in Petri dishes and cultured for 24 h in RPMI without phenol red supplemented with 10% of fetal calf serum (FCS). The cells are then washed twice with PBS and put back into culture in medium with 0% FCS. They are allowed an adaptation time of 10 minutes at 37° C. before the addition of the antibodies at 10 μg/ml. After an extra 10 minutes at 37° C., recombinant IGF-I (Sigma) is added to the culture medium to a final concentration of 50 ng/ml. The cells are left at 37° C. again for one hour in order to allow the attachment of the antibodies and of the IGF-I. Finally, the doxorubicin (Sigma) is added to the culture medium at 2 μg/ml and the cells are incubated for 24 hours at 37° C.
The experiments have likewise been conducted with navelbine at a concentration of 10 μg/ml.
The analysis of the cell viability is carried out by flow cytometric analysis after labeling with the annexin V-FITC (20 minutes, 4° C.) and DAPI (2 μg/ml). The percentage of dead cells considered is the labeled population Annexin+/DAPI+. The antibody 5C2 is used as a control isotype.
In general terms: A flow cytometer gives signals particle by particle.

Hybrid-R, sequence (P08069 31-736 limits assumed): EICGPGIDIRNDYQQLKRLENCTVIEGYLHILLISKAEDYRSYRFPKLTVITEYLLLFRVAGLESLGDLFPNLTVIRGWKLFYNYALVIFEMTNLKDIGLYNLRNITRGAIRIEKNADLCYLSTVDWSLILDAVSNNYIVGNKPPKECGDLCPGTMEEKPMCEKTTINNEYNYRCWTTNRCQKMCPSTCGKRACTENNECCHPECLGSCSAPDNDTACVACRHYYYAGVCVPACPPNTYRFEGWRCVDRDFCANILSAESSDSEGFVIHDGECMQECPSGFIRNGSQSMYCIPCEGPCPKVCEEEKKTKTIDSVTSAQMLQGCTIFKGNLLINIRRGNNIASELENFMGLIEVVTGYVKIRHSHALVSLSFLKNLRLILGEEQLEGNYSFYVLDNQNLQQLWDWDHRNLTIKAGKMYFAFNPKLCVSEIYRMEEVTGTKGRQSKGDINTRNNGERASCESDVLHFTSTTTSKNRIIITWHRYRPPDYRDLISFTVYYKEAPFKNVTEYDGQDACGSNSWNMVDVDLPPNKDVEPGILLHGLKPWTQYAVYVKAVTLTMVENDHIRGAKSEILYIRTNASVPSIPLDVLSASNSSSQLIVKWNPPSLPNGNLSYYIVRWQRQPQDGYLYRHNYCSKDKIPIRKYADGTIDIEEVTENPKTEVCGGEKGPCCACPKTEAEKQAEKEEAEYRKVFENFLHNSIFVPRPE
Hybrid-R, sequence (P08069 741-1367 limits assumed): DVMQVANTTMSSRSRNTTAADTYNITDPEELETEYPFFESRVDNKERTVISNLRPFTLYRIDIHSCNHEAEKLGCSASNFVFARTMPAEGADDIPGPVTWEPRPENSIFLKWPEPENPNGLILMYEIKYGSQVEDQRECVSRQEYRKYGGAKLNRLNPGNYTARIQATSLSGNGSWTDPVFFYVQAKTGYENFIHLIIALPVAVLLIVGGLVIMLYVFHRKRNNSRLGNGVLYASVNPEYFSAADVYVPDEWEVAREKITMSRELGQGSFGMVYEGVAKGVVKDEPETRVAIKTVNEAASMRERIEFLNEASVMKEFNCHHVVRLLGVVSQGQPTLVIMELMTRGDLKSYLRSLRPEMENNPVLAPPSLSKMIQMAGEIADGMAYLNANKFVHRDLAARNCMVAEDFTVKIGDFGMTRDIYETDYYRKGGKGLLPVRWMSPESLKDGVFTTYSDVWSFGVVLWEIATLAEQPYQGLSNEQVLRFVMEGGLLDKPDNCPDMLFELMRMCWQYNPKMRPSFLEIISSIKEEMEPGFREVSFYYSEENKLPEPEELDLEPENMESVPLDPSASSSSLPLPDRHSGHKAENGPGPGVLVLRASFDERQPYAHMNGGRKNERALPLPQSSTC

Consider “7C10: murine monoclonal anti-IGF-IR IgG1 secreted by the hybridoma deposited at the CNCM under the number I-2717”, for which the “inhibition of A549 tumor growth in vivo, murine versus humanized antibody” value in assay [1] was “significant inhibition of the tumor growth”. Also, the “inhibition of A549 tumor growth in vivo” value in assay [1] (250 μg/dose/mouse twice per week i.p.) is “significant activity; also recorded: as active as the conventional treatment with navelbine; also recorded: significant decrease in the tumor growth”. In addition, the “inhibition of tyrosine phosphorylation of IRS-1” value in assay [2] is recorded as “inhibit the phosphorylation”. Besides, the “recognition of Hybrid-R by immunoprecipitation” value in assay [3] is given as “recognizes Hybrid-R”. Moreover, the “potentiation of doxorubicin-induced cell death” value in assay [4] is “significant increase in cell death”.
In the case of “h7C10: humanized 7C10 anti-IGF-IR antibody, isotype IgG1 (humanized 1 written 7H2HM)”, the “inhibition of A549 tumor growth in vivo, murine versus humanized antibody” value in assay [1] is recorded as “exactly the same intensity as that observed with its murine counterpart”. In addition, the “inhibition of tyrosine phosphorylation of IRS-1” value in assay [2] is recorded as “inhibit the phosphorylation”. In addition, the “recognition of Hybrid-R by immunoprecipitation” value in assay [3] is recorded as “recognizes Hybrid-R”. Also, the “potentiation of doxorubicin-induced cell death” value in assay [4] is on record as “same effect”.
